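Protocol summary: plate cells (96-well), add compound at 5 concentrations, incubate 48 h, interpolate endpoints linearly. GI50 marks 50% less growth.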 Calls of active or inactive are those of the source. No stated cut-off is given here; in the data, active = GI50 up to about 1.1 µM and inactive = higher. Where a SMILES comes first, the peptide text is derived from it. The star is where a group is joined. ONb = O=[N+]([O-])c1ccc(CO*)cc1; Boc = CC(C)(C)OC(=O)*
Tests used:
Experiment in all cases: growth of human tumour cells (NCI), 48 h
A498 = tested on: A498
CAKI-1 = tested on: CAKI-1
DU-145 = tested on: DU-145
HCT-116 = tested on: HCT-116
HCT-15 = tested on: HCT-15
MDA-N = tested on: MDA-N
MOLT-4 = tested on: MOLT-4
NCI-H460 = tested on: NCI-H460
NCI/ADR-RES = tested on: NCI/ADR-RES
OVCAR-5 = tested on: OVCAR-5
OVCAR-8 = tested on: OVCAR-8
SF-268 = tested on: SF-268
SF-539 = tested on: SF-539
SK-MEL-5 = tested on: SK-MEL-5
SN12C = tested on: SN12C
SR = tested on: SR
T47D = tested on: T47D
UACC-62 = tested on: UACC-62
UO-31 = tested on: UO-31

| SMILES | GI50 (A498) | GI50 (CAKI-1) | GI50 (DU-145) | GI50 (HCT-116) | GI50 (HCT-15) [µM] | GI50 (MDA-N) | GI50 (MOLT-4) | GI50 (NCI-H460) | GI50 (NCI/ADR-RES) | GI50 (OVCAR-5) | GI50 (OVCAR-8) | GI50 (SF-268) | GI50 (SF-539) | GI50 (SK-MEL-5) | GI50 (SN12C) | GI50 (SR) | GI50 (T47D) | GI50 (UACC-62) | GI50 (UO-31) |
| --- | --- | --- | --- | --- | --- | --- | --- | --- | --- | --- | --- | --- | --- | --- | --- | --- | --- | --- | --- |
| c1ccc(-c2cc(-c3cccs3)c(-c3cccs3)o2)cc1 | > 100 µM (inactive) | > 100 µM (inactive) | > 100 µM (inactive) | 50.7 µM (inactive) | > 100 | > 100 µM (inactive) | > 100 µM (inactive) | > 100 µM (inactive) | > 100 µM (inactive) | > 100 µM (inactive) | > 100 µM (inactive) | > 100 µM (inactive) | > 100 µM (inactive) | > 100 µM (inactive) | > 100 µM (inactive) | > 100 µM (inactive) | > 100 µM (inactive) | > 100 µM (inactive) | > 100 µM (inactive) |
| Cc1cc(O)c2c(c1)C(=O)C(c1c(C)cc3c(c1O)C(=O)C1OC1C3=O)=CC2=O (stereo not given) | 6.4 µM (inactive) | 0.796 µM (active) | 6.7 µM (inactive) | 1.71 µM (inactive) | 1.16 | 1.27 µM (inactive) | 0.147 µM (active) | 7.87 µM (inactive) | 2.77 µM (inactive) | 5.27 µM (inactive) | 4.11 µM (inactive) | 7.24 µM (inactive) | 4.48 µM (inactive) | 6.34 µM (inactive) | 3.44 µM (inactive) | 0.327 µM (active) | 1.98 µM (inactive) | 2.04 µM (inactive) | 1.8 µM (inactive) |
| COC(=O)c1ccccc1CC(Cc1ccc2c(c1)CCC2)C(=O)OC (stereo not given) | > 100 µM (inactive) | > 100 µM (inactive) | > 100 µM (inactive) | 49.1 µM (inactive) | > 100 | 62.4 µM (inactive) | 31.8 µM (inactive) | > 100 µM (inactive) | > 100 µM (inactive) | > 100 µM (inactive) | > 100 µM (inactive) | > 100 µM (inactive) | > 100 µM (inactive) | 32.4 µM (inactive) | > 100 µM (inactive) | 36.9 µM (inactive) | > 100 µM (inactive) |  | > 100 µM (inactive) |
| Cc1c2ncccc2cc2oc3ccccc3c(=O)c12 | 81.5 µM (inactive) | 17.7 µM (inactive) | 29.2 µM (inactive) | 31.3 µM (inactive) | 41.8 | 63.4 µM (inactive) | 2.94 µM (inactive) | 5.46 µM (inactive) | 21.4 µM (inactive) | 16.1 µM (inactive) | 80.2 µM (inactive) | 41.7 µM (inactive) | > 100 µM (inactive) | 18.2 µM (inactive) | 24 µM (inactive) | 41.2 µM (inactive) | 18.1 µM (inactive) | 50 µM (inactive) | 7.06 µM (inactive) |
| CCOC(=O)CC1(O)CCCCC1(Sc1ccc(C)cc1)Sc1ccc(C)cc1 (stereo not given) | > 100 µM (inactive) | 32.2 µM (inactive) | 59.2 µM (inactive) | 33.9 µM (inactive) | 34.4 | 35.5 µM (inactive) | 24.9 µM (inactive) | 56.4 µM (inactive) | 65.9 µM (inactive) | 44.2 µM (inactive) | 56.1 µM (inactive) | 31.7 µM (inactive) | > 100 µM (inactive) | 29.9 µM (inactive) | 39.4 µM (inactive) | 31.3 µM (inactive) | 19.4 µM (inactive) | 92 µM (inactive) | 41.8 µM (inactive) |
| O=c1ccn2n1CCCCC2 | > 100 µM (inactive) | > 100 µM (inactive) | > 100 µM (inactive) | > 100 µM (inactive) | > 100 | > 100 µM (inactive) | > 100 µM (inactive) | > 100 µM (inactive) | > 100 µM (inactive) | > 100 µM (inactive) | > 100 µM (inactive) | > 100 µM (inactive) | > 100 µM (inactive) | > 100 µM (inactive) | > 100 µM (inactive) | > 100 µM (inactive) | 58.2 µM (inactive) | > 100 µM (inactive) | > 100 µM (inactive) |
| CC1OC(OC2C(O[C@@H]3C[C@@H]4CC[C@@H]5[C@H](CC[C@]6(C)C7C(C[C@@H]56)O[C@]5(CC[C@@H](C)CO5)[C@H]7C)[C@@]4(C)C[C@H]3O)OC(CO)C(O)C2O)C(O)C(O)C1O (stereo not given in full) | 2.3 µM (inactive) | 2.06 µM (inactive) | 1.84 µM (inactive) | 1.81 µM (inactive) | 1.87 | 2.47 µM (inactive) | 1.86 µM (inactive) | 1.92 µM (inactive) | 1.94 µM (inactive) | 1.57 µM (inactive) | 1.86 µM (inactive) | 1.91 µM (inactive) | 1.64 µM (inactive) | 2.09 µM (inactive) | 1.71 µM (inactive) | 2.16 µM (inactive) | 2.14 µM (inactive) | 1.74 µM (inactive) | 1.78 µM (inactive) |
| C=CCn1c(N)c(C#N)c(C#N)c1-c1ccccc1 | > 100 µM (inactive) | > 100 µM (inactive) | > 100 µM (inactive) |  | > 100 | > 100 µM (inactive) | > 100 µM (inactive) |  | > 100 µM (inactive) | > 100 µM (inactive) | > 100 µM (inactive) | > 100 µM (inactive) | > 100 µM (inactive) | > 100 µM (inactive) | > 100 µM (inactive) | > 100 µM (inactive) | > 100 µM (inactive) | > 100 µM (inactive) | > 100 µM (inactive) |
| COc1ccc(NCc2c(O)ccc3ccccc23)cc1 | 24.6 µM (inactive) | 22.3 µM (inactive) | 76 µM (inactive) | 33.8 µM (inactive) | 13.7 | 30.1 µM (inactive) |  | 49.9 µM (inactive) | 40.5 µM (inactive) | 11.3 µM (inactive) | 15.8 µM (inactive) | 19.9 µM (inactive) | 13.2 µM (inactive) | 12.4 µM (inactive) | 34.4 µM (inactive) | 17.1 µM (inactive) | 17.4 µM (inactive) | 8.09 µM (inactive) | 11.3 µM (inactive) |
| COC(=O)c1c(O)ccc2c1c1c(n2Cc2cccc(C)c2)C(=O)c2ccccc2C1=O | 17.7 µM (inactive) | 11.8 µM (inactive) | 14.4 µM (inactive) | 6.97 µM (inactive) | 8.05 | 13.1 µM (inactive) | 4.24 µM (inactive) | 4.29 µM (inactive) | 9.42 µM (inactive) | 22.5 µM (inactive) | 7.31 µM (inactive) | 12 µM (inactive) | 14.8 µM (inactive) | 13.1 µM (inactive) | 7.76 µM (inactive) | 4.98 µM (inactive) | 1.94 µM (inactive) |  | 5.92 µM (inactive) |
| O=c1cc(N2CCOCC2)oc2c(-c3ccccc3)cccc12 [LY-294002] | 2.48 µM (inactive) | 2.39 µM (inactive) | 12.4 µM (inactive) | 12.6 µM (inactive) | 7.91 | 11.8 µM (inactive) | 11.4 µM (inactive) | 11.4 µM (inactive) | 4.76 µM (inactive) | 12.1 µM (inactive) | 4.58 µM (inactive) | 2.28 µM (inactive) | 7.98 µM (inactive) |  | 5.36 µM (inactive) | 3.36 µM (inactive) | 2.49 µM (inactive) | 3.79 µM (inactive) | 15.8 µM (inactive) |
| Cc1oc2c(c1C)S(=O)(=O)C(C#N)=C(c1ccccc1)N2 | > 100 µM (inactive) | > 100 µM (inactive) | > 100 µM (inactive) |  | > 100 | > 100 µM (inactive) | > 100 µM (inactive) | > 100 µM (inactive) | > 100 µM (inactive) | > 100 µM (inactive) | > 100 µM (inactive) | > 100 µM (inactive) | > 100 µM (inactive) | > 100 µM (inactive) | > 100 µM (inactive) | > 100 µM (inactive) | > 100 µM (inactive) | > 100 µM (inactive) | > 100 µM (inactive) |
| CC(C)CC(NC(=O)OC(C)(C)C)C(=O)NC(CCC(=O)OCc1ccc([N+](=O)[O-])cc1)C(=O)OCc1ccc([N+](=O)[O-])cc1 (stereo not drawn) (Boc-Leu-Glu(ONb)-ONb; configuration not given here) | 40.2 µM (inactive) | > 100 µM (inactive) | 13.5 µM (inactive) | 37.5 µM (inactive) | > 100 | 44.8 µM (inactive) | 13 µM (inactive) | 22 µM (inactive) | > 100 µM (inactive) | > 100 µM (inactive) | 37.1 µM (inactive) | 18.4 µM (inactive) | 18.7 µM (inactive) |  | > 100 µM (inactive) | 13.8 µM (inactive) | 92.3 µM (inactive) | 28.4 µM (inactive) | 82.6 µM (inactive) |
| C/C=C(\C)c1cc(=O)c2c(C)cc3c(c2o1)C(OC)(OC(C)=O)c1c(O)c(C2CC(C)(N(C)C)C(OC(C)=O)C(C)O2)cc(C2CC(N(C)C)C(OC(C)=O)C(C)O2)c1C3=O (stereo not given) | 1.27 µM (inactive) | 0.436 µM (active) | 0.497 µM (active) | 0.286 µM (active) | 1.05 | 1.64 µM (inactive) | 0.277 µM (active) |  | 1.75 µM (inactive) | 2.17 µM (inactive) | 0.552 µM (active) | 0.27 µM (active) | 1.55 µM (inactive) | 1.51 µM (inactive) | 0.893 µM (active) | 0.0251 µM (active) | 3.74 µM (inactive) | 1.22 µM (inactive) | 1.57 µM (inactive) |
| CN(Nc1cc(=O)[nH]c(=O)[nH]1)c1ccccc1 | > 100 µM (inactive) | > 100 µM (inactive) | > 100 µM (inactive) | > 100 µM (inactive) |  | > 100 µM (inactive) | > 100 µM (inactive) | > 100 µM (inactive) | > 100 µM (inactive) | > 100 µM (inactive) | > 100 µM (inactive) | > 100 µM (inactive) | > 100 µM (inactive) | > 100 µM (inactive) | > 100 µM (inactive) | > 100 µM (inactive) | > 100 µM (inactive) | > 100 µM (inactive) | > 100 µM (inactive) |
